Experimental data: paper PMC10233829 (ACS Omega, 2023)
≈ marks a conversion by molar mass, not a printed value.

Key:
S. aureus NCTC 4163 = assay: MIC, twofold microdilution, standard strain; assay type: cell-based; settings: Staphylococcus aureus, NCTC4163, 18 h
S. aureus ATCC 25923 = assay: MIC, twofold microdilution, standard strain; assay type: cell-based; settings: Staphylococcus aureus, ATCC25923, 18 h
S. aureus ATCC 6538 = assay: MIC, twofold microdilution, standard strain; assay type: cell-based, Staphylococcus aureus; settings: Staphylococcus aureus, ATCC6538; standard strain, 18 h
S. aureus ATCC 29213 = assay: MIC, twofold microdilution, standard strain; assay type: cell-based; settings: Staphylococcus aureus, ATCC29213, 18 h
[1] = system: S. epidermidis ATCC 12228; assay: MIC, twofold microdilution, standard strain; assay type: cell-based; settings: Staphylococcus epidermidis, ATCC12228, 18 h
[2] = system: S. epidermidis ATCC 35984; assay: MIC, twofold microdilution, standard strain; assay type: cell-based; settings: Staphylococcus epidermidis, ATCC35984, 18 h
P. aeruginosa ATCC 15442 = assay: MIC, twofold microdilution, standard strain; assay type: cell-based, Pseudomonas aeruginosa; settings: Pseudomonas aeruginosa, ATCC15442; standard strain, 18 h
E. coli ATCC 25922 = assay: MIC, twofold microdilution, standard strain; assay type: cell-based, Escherichia coli; settings: Escherichia coli, ATCC25922; standard strain, 18 h
S. aureus 180 = assay: MIC, twofold microdilution, clinical strain; assay type: cell-based; settings: Staphylococcus aureus, 18 h
S. aureus 5595 = assay: MIC, twofold microdilution, clinical strain; assay type: cell-based; settings: Staphylococcus aureus, 18 h
S. aureus T5595 = assay: MIC, twofold microdilution, clinical strain; assay type: cell-based, Staphylococcus aureus; settings: for MIC: Staphylococcus aureus, T5595, 18 h
S. aureus T5591 = assay: MIC, twofold microdilution, clinical strain; assay type: cell-based, Staphylococcus aureus; settings: for MIC: Staphylococcus aureus, T5591, 18 h
S. epidermidis 4341 = assay: MIC, twofold microdilution, clinical strain; assay type: cell-based; settings: Staphylococcus epidermidis, 18 h
S. epidermidis 5253 = assay: MIC, twofold microdilution, clinical strain; assay type: cell-based, Staphylococcus epidermidis; settings: for MIC: Staphylococcus epidermidis, 5253, 18 h
S. epidermidis KR4243/1 = assay: MIC, twofold microdilution, clinical strain; assay type: cell-based; settings: Staphylococcus epidermidis, 18 h
S. pasteuri KR 4358 = assay: MIC, twofold microdilution, clinical strain; assay type: cell-based; settings: Staphylococcus pasteuri, KR4358, 18 h
P. aeruginosa 37 = assay: MIC, twofold microdilution, clinical strain; assay type: cell-based; settings: Pseudomonas aeruginosa, 18 h
P. aeruginosa 659 = assay: MIC, twofold microdilution, clinical strain; assay type: cell-based; settings: Pseudomonas aeruginosa, 18 h
E. coli 951 = assay: MIC, twofold microdilution, clinical strain; assay type: cell-based; settings: Escherichia coli, 18 h
E. coli 520 = assay: MIC, twofold microdilution, clinical strain; assay type: cell-based; settings: Escherichia coli, 18 h
E. coli 600 = assay: MIC, twofold microdilution, clinical strain; assay type: cell-based, Escherichia coli; settings: Escherichia coli, 600, 18 h
E. cloacae 8 = assay: MIC, twofold microdilution, clinical strain; assay type: cell-based, Escherichia cloacae; settings: Enterobacter cloacae, 8; clinical strain, 18 h
K. pneumoniae 28 = assay: MIC, twofold microdilution, clinical strain; assay type: cell-based; settings: Klebsiella pneumoniae, 18 h
K. pneumoniae 510 = assay: MIC, twofold microdilution, clinical strain; assay type: cell-based, Klebsiella pneumoniae; settings: Klebsiella pneumoniae, 510; clinical strain, 18 h
M. tuberculosis H37Rv = assay: Tuberculostatic activity, Microplate Alamar Blue Assay (MIC); assay type: cell-based, Mycobacterium tuberculosis; settings: Mycobacterium tuberculosis, H37RV; MABA; read-out: MIC M. tuberculosis H37Rv
[3] = system: M. tuberculosis Spec. 192; assay: as above; assay type: cell-based; settings: Mycobacterium tuberculosis, MABA, read-out: MIC M. tuberculosis Spec. 192 (sensitive to tuberculostatics)
PC3 cells = assay: MTT assay, cytotoxic activity; assay type: cell-based, human; settings: Homo sapiens, PC-3, 72 h, MTT, 72 h
Procedure: Metastatic prostate cancer (PC3) and human immortal keratinocyte (HaCaT) cell lines were purchased from the American Type Culture Collection (ATCC, Rockville, MD, USA) and cultured in MEM (minimal essential medium, Thermo Sci, USA), RPMI 1640 (Roswell Park Memorial Institute, Biowest SAS, France), and DMEM (Dulbecco’s Modified Eagle’s Medium, Biowest SAS, France). Cells were seeded in 6 mL medium in a tissue culture flask (50 mL) in a 37 °C/5% CO2 humidified incubator. […] MTT analysis was performed according to a previous study.[59] Untreated cells were used as controls. Cell absorbance results were inserted into the formula for the relative MTT level (%). It allows to calculate the viability of cells under the influence of the tested compounds. Cell viability was expressed as the percentage of MTT reduction in cells treated with tested compounds compared to the control sample. The relative MTT level was calculated using the formula [100%] = A/B × 100% where A—the test sample absorbance and B—the control sample absorbance.

[4] = MTT assay, cytotoxic activity; assay type: cell-based; settings: human, HaCaT cells (immortal keratinocytes); MTT, 72 h, normal cell line; read-out: IC50 HaCaT
Procedure: Cells were seeded in 6 mL medium in a tissue culture flask (50 mL) in a 37 °C/5% CO2 humidified incubator. […] MTT analysis was performed according to a previous study.[59] Untreated cells were used as controls. Cell absorbance results were inserted into the formula for the relative MTT level (%). It allows to calculate the viability of cells under the influence of the tested compounds. Cell viability was expressed as the percentage of MTT reduction in cells treated with tested compounds compared to the control sample. The relative MTT level was calculated using the formula [100%] = A/B × 100% where A—the test sample absorbance and B—the control sample absorbance.

[5] = system: Staphylococci (standard strains); assay: MIC, standard Gram-positive strains as a panel; assay type: cell-based, S. aureus, S. epidermidis; settings: standard Gram-positive strains of Table 1; read-out: MIC toward standard Staphylococci (range over strains)
[6] = system: clinical bacterial strains; assay: MIC, clinical isolates as groups of strains; assay type: cell-based; settings: for MIC: clinical strains, read-out: MIC against selected E. coli and E. cloacae strains

Compound	MIC (S. aureus NCTC 4163)	MIC (S. aureus ATCC 25923)	MIC (S. aureus ATCC 6538)	MIC (S. aureus ATCC 29213)	MIC [1]	MIC [2]	MIC (P. aeruginosa ATCC 15442)	MIC (E. coli ATCC 25922)	MIC (S. aureus 180)	MIC (S. aureus 5595)	MIC (S. aureus T5595)	MIC (S. aureus T5591)	MIC (S. epidermidis 4341)	MIC (S. epidermidis 5253)	MIC (S. epidermidis KR4243/1)	MIC (S. pasteuri KR 4358)	MIC (P. aeruginosa 37)	MIC (P. aeruginosa 659)	MIC (E. coli 951)	MIC (E. coli 520)	also measured
O=C(O)c1cn(C2CC2)c2cc(N3CCN(C(=O)CCCCCBr)CC3)c(F)cc2c1=O [Compound 12, 7-[4-(6-Bromohexanoyl)-piperazin-1-yl]-1-cyclopropyl-6-fluoro-4-oxo-1,4-dihydro-quinoline-3-carboxylic Acid]	0.8 µg/mL (≈ 1.57 µM)	1.6 µg/mL (≈ 3.15 µM)	1.6 µg/mL (≈ 3.15 µM)	1.6 µg/mL (≈ 3.15 µM)	1.6 µg/mL (≈ 3.15 µM)	0.8 µg/mL (≈ 1.57 µM)	25.6 µg/mL (≈ 50.4 µM)	1.6 µg/mL (≈ 3.15 µM)	0.5 µg/mL (≈ 0.984 µM)	0.5 µg/mL (≈ 0.984 µM)	0.8 µg/mL (≈ 1.57 µM)	0.8 µg/mL (≈ 1.57 µM)	64 µg/mL (≈ 126 µM)	> 25.6 µg/mL	0.8 µg/mL (≈ 1.57 µM)	0.8 µg/mL (≈ 1.57 µM)	> 25.6 µg/mL	> 25.6 µg/mL	> 25.6 µg/mL	0.8 µg/mL (≈ 1.57 µM)	MIC (E. coli 600): 0.4 µg/mL (≈ 0.787 µM); MIC (E. cloacae 8): > 25.6 µg/mL; MIC (K. pneumoniae 28): > 25.6 µg/mL; MIC (K. pneumoniae 510): > 25.6 µg/mL; MIC (M. tuberculosis H37Rv): 1 µg/mL (≈ 1.97 µM); MIC [3]: 1 µg/mL (≈ 1.97 µM); IC50 (PC3 cells): 29.7 ± 5 µM; IC50 at 72 h [4]: > 100 µM; MIC [5]: 0.8 to 1.6 µg/mL (≈ 1.57 to 3.15 µM); MIC [6]: 0.1 to 0.8 µg/mL (≈ 0.197 to 1.57 µM)
O=C(O)c1cn(C2CC2)c2cc(N3CCN(C(=O)CC(F)(F)F)CC3)c(F)cc2c1=O [Compound 14, 7-[4-(3,3,3-Trifluoropropionyl)-piperazin-1-yl]-1-cyclopropyl-6-fluoro-4-oxo-1,4-dihydro-quinoline-3-carboxylic Acid]	0.4 µg/mL (≈ 0.906 µM)	0.4 µg/mL (≈ 0.906 µM)	0.4 µg/mL (≈ 0.906 µM)	0.4 µg/mL (≈ 0.906 µM)	0.4 µg/mL (≈ 0.906 µM)	0.4 µg/mL (≈ 0.906 µM)	> 25.6 µg/mL	0.8 µg/mL (≈ 1.81 µM)	0.5 µg/mL (≈ 1.13 µM)	0.5 µg/mL (≈ 1.13 µM)	0.1 to 0.2 µg/mL (≈ 0.227 to 0.453 µM)	0.1 to 0.2 µg/mL (≈ 0.227 to 0.453 µM)	> 25.6 µg/mL	> 25.6 µg/mL	0.1 µg/mL (≈ 0.227 µM)	0.2 µg/mL (≈ 0.453 µM)	> 25.6 µg/mL	> 25.6 µg/mL	> 25.6 µg/mL	0.4 µg/mL (≈ 0.906 µM)	MIC S. aureus T5595 (S. aureus T5595; 18 h): 0.2 µg/mL (≈ 0.453 µM); MIC S. aureus T5591 (S. aureus T5591; 18 h): 0.2 µg/mL (≈ 0.453 µM); MIC (E. coli 600): 0.8 µg/mL (≈ 1.81 µM); MIC (E. cloacae 8): 2 µg/mL (≈ 4.53 µM); MIC (K. pneumoniae 28): > 25.6 µg/mL; MIC (K. pneumoniae 510): > 25.6 µg/mL; MIC (M. tuberculosis H37Rv): 64 µg/mL (≈ 145 µM); MIC [3]: 64 µg/mL (≈ 145 µM); IC50 (PC3 cells): 63.4 ± 5.3 µM; IC50 at 72 h [4]: > 100 µM; times more powerful than CP ([6]; S. aureus T5595 and T5591): 1.25–2.5 times; MIC [6]: 0.1 to 0.8 µg/mL (≈ 0.227 to 1.81 µM)
O=C(O)c1cn(C2CC2)c2cc(N3CCN(CC(=O)N4CCN(c5cc6c(cc5F)c(=O)c(C(=O)O)cn6C5CC5)CC4)CC3)c(F)cc2c1=O [Compound 17, CP–Acetyl–CP Dimer]	0.4 µg/mL (≈ 0.569 µM)	1.6 µg/mL (≈ 2.28 µM)	0.2 µg/mL (≈ 0.285 µM)	0.8 µg/mL (≈ 1.14 µM)	0.2 µg/mL (≈ 0.285 µM)	0.4 µg/mL (≈ 0.569 µM)	> 25.6 µg/mL	6.4 µg/mL (≈ 9.11 µM)	1.6 µg/mL (≈ 2.28 µM)	0.4 µg/mL (≈ 0.569 µM)	0.8 µg/mL (≈ 1.14 µM)	1.6 µg/mL (≈ 2.28 µM)	25.6 µg/mL (≈ 36.4 µM)	12.8 to 25.6 µg/mL (≈ 18.2 to 36.4 µM)	0.2 µg/mL (≈ 0.285 µM)	1.6 µg/mL (≈ 2.28 µM)	> 25.6 µg/mL	> 25.6 µg/mL	> 25.6 µg/mL	3.2 µg/mL (≈ 4.55 µM)	MIC S. epidermidis 5253 (S. epidermidis 5253; 18 h): 25.6 µg/mL (≈ 36.4 µM); MIC (E. coli 600): 12.8 µg/mL (≈ 18.2 µM); MIC (E. cloacae 8): 25.6 µg/mL (≈ 36.4 µM); MIC (K. pneumoniae 28): > 25.6 µg/mL; MIC (K. pneumoniae 510): > 25.6 µg/mL; MIC (M. tuberculosis H37Rv): 32 µg/mL (≈ 45.5 µM); MIC [3]: 32 µg/mL (≈ 45.5 µM); IC50 (PC3 cells): 88.4 ± 10.6 µM; IC50 at 72 h [4]: 41.3 ± 5.2 µM; MIC [5]: 0.2 to 1.6 µg/mL (≈ 0.285 to 2.28 µM)
O=C(O)c1cn(C2CC2)c2cc(N3CCN(CCCCCC(=O)N4CCN(c5cc6c(cc5F)c(=O)c(C(=O)O)cn6C5CC5)CC4)CC3)c(F)cc2c1=O [Compound 20, CP–Hexanoyl–CP Dimer]	1.6 µg/mL (≈ 2.11 µM)	1.6 µg/mL (≈ 2.11 µM)	1.6 µg/mL (≈ 2.11 µM)	1.6 µg/mL (≈ 2.11 µM)	1.6 µg/mL (≈ 2.11 µM)	1.6 µg/mL (≈ 2.11 µM)	> 25.6 µg/mL	6.4 µg/mL (≈ 8.43 µM)	1 µg/mL (≈ 1.32 µM)	1 µg/mL (≈ 1.32 µM)	0.8 µg/mL (≈ 1.05 µM)	0.8 µg/mL (≈ 1.05 µM)	> 25.6 µg/mL	> 25.6 µg/mL	0.8 µg/mL (≈ 1.05 µM)	0.8 µg/mL (≈ 1.05 µM)	> 25.6 µg/mL	> 25.6 µg/mL	> 25.6 µg/mL	12.8 µg/mL (≈ 16.9 µM)	MIC (E. coli 600): 12.8 µg/mL (≈ 16.9 µM); MIC (E. cloacae 8): > 25.6 µg/mL; MIC (K. pneumoniae 28): > 25.6 µg/mL; MIC (K. pneumoniae 510): > 25.6 µg/mL; MIC (M. tuberculosis H37Rv): 32 µg/mL (≈ 42.2 µM); MIC [3]: 16 µg/mL (≈ 21.1 µM); IC50 (PC3 cells): 69.9 ± 7.2 µM; IC50 at 72 h [4]: 89.5 ± 5.9 µM
